Reference: patent US7361680B2, “Indole compounds useful for the treatment of cancer” (The Regents of the University of California, priority 1999, dated 2008)

Key:
[1] = system: normal peripheral blood lymphocytes (PBL); experiment: Viability of normal peripheral blood lymphocytes, erythrocin B exclusion assay; format: cell-based, human; conditions: FIG. 1
normal B cells = experiment: Viability of normal B lymphocytes (anti-CD19 staining, DiOC6 fluorescence); format: cell-based, human; conditions: 1.0 mM, 24 hours
Method: Then B lymphocytes were identified by staining with anti-CD19 antibody, and viability was assessed by DiOC6 fluorescence.

CLL cells [2] = experiment: Viability of CLL cells taken from patients before and after oral etodolac; format: in vivo, human; conditions: for in vitro survival of CLL cells after treatment compared to before treatment: 400 mg tablet, second tablet 12 hours later
Method: The circles show CLL cells before etodolac treatment. In FIGS. 6-7, the upward pointing triangles represent CLL cell viability after etodolac treatment, wherein the cells are dispersed in medium containing the pretreatment plasma. The downward pointing triangles are CLL cells after treatment maintained in medium with the post-treatment plasma. […] Cells were analyzed within 30 minutes in a Becton Dickinson FAC-Scalibur cytofluorometer. After suitable comprehension, fluorescence was recorded at different wavelength: DiOC6 and DHR at 525 nm (Fl-1) and PI at 600 nm (FL-3).

PC-3 (Prostate) = experiment: Cytotoxicity by MTT assay, PC-3; format: cell-based; conditions: three days continuous exposure
LNCaP-FGC (Prostate) = experiment: Cytotoxicity by MTT assay, LNCaP-FGC; format: cell-based; conditions: three days continuous exposure
Alva-31 (Prostate) = experiment: Cytotoxicity by MTT assay, Alva-31; format: cell-based; conditions: three days continuous exposure
OVCAR-3 (Ovarian) = experiment: Cytotoxicity by MTT assay, OVCAR-3; format: cell-based; conditions: three days continuous exposure
MDA-MB-231 (Breast) = experiment: Cytotoxicity by MTT assay, MDA-MB-231; format: cell-based; conditions: three days continuous exposure
HCT-116 (Colon) = experiment: Cytotoxicity by MTT assay, HCT-116; format: cell-based; conditions: three days continuous exposure
SW260 (Colon) = experiment: Cytotoxicity by MTT assay, SW260; format: cell-based; conditions: 72 h, three days continuous exposure
A549 (Lung) = experiment: Cytotoxicity by MTT assay, A549; format: cell-based; conditions: three days continuous exposure
Mcl-1 = Mcl-1 level in LNCaP cells, SDS-PAGE immunoblot; format: cell-based
Bag-1 = Bag-1 level in LNCaP cells, SDS-PAGE immunoblot; format: cell-based; conditions: 100 μM, as early as two hours, FIG. 11B
Bcl-2 and Bax = Bcl-2 and Bax levels after etodolac incubation; format: cell-based; conditions: data not shown
prostate cancer tissue = experiment: Prostatectomy tissue samples incubated 72 hours, histology; format: cell-based
Source text: The tissues were next fixed in 4% paraformaldehyde in PBS, embedded in paraffin, sectioned and stained with hematoxylin and eosin.

[3] = cited from earlier work
CLL cells [4] = experiment: Viability of CLL cells, erythrocin B exclusion assay; conditions: for toxicity of the enantiomers to CLL cells: RPMI 1640 with 10% autologous plasma, FIG. 5
CLL cells [5] = experiment: MTT cytotoxicity assay, CLL cells; format: cell-based; conditions: Homo sapiens, CLL cell, 72 hours, duplicate
Method: The compounds of the invention were screened for CLL apoptotic activity by flow cytometry and a MTT-based assay. […] Primary PBL cells were acquired from the San Diego Blood Bank, San Diego, Calif. DiOC6 and PI dyes were obtained from Molecular Probes, Eugene, Oreg. Otherwise, unless indicated, all other reagents were purchased from Sigma (St. Louis, Mo.), and all test compounds were dissolved in sterile DMSO.
To get a more concise measure of the EC50 and confirm the flow cytometry results, a MTT (3-(4,5-dimethylthiazol-2-yl)-2,5-diphenyl tertrazolium bromide) assay using a procedure similar to that described by Mosmann, T., J Immunol Methods. 1983, 65, 55-63, was performed on all analogs. This method provided a larger number of datapoints so that a value for the EC50 could be extrapolated.
This assay was based on a procedure described by Mosmann. Briefly, in each well of a 96-well plate, 5×10^5 CLL cells were suspended in 100 μL of […] medium containing 10% FBS, 100 μg/mL penicillin, and 100 μg/mL streptomycin. Serial dilution of test compounds were then performed in duplicate across the plate to establish a concentration gradient from 0 to 1000 μM. After 72 hours of incubation at 37° C., the cells were incubated for 6 more hours in the presence of 20 μL of 5 mg/mL MTT (3-(4,5-dimethylthiazol-2-yl)-2,5-diphenyl tertrazolium bromide) before dissolving the resulting crystals in 50 μL lysis buffer (15% SDS, 15 mM HCl) overnight. Afterwards, the absorbance of each well was measured at […] in a Finstrument Microplate Reader, and the data was analyzed by Graphpad Prism Software, version 2.0b.

[6] = target: T1, COX-1 isolated from human platelets (Homo sapiens, UniProt P23219); experiment: COX-1 enzyme assay (PGE2 enzyme immunoassay); format: biochemical; conditions: duplicate
T1 construct: COX-1 isolated from human platelets; tissue MDS Pharma Services; host or cells: human platelets
Method: (§1) Compounds active in both the flow cytometry and MTT experiments were then tested for COX inhibition at 50 μM in an enzyme assay using COX-1 isolated from human platelets and human recombinant COX-2 purified from insect cells (Spodoptera frugiperda), as described by Riendeau et. al., Br J Pharmacol. 1997, 121, 105-117; Riendeau et. al., Can J Physiol Pharmacol. 1997, 75, 1088-1095; and Warner et. al. Proc Natl Acad Sci. 1999, 96, 7563-7568. These assays were performed by MDS Pharma Services, Bothell, Wash. The compounds were incubated in duplicate with COX-1 isolated from human platelets and human recombinant COX-2 purified from insect cells (Spodoptera frugiperda). Enzyme immunoassay quantification of prostaglandin E2 production from arachidonic acid in the presence (50 μM) and absence of test compounds was used to determine the percentage of COX inhibition.

human recombinant COX-2 = target: T2, human recombinant COX-2 (Homo sapiens, UniProt P35354); experiment: COX-2 enzyme assay (PGE2 enzyme immunoassay); format: biochemical; conditions: duplicate
T2 construct: MDS Pharma Services (performed the assay); host or cells: Spodoptera frugiperda insect cells
Method: as §1

in vitro = conditions: human
multiple myeloma cells = experiment: Killing of multiple myeloma cells in patient bone marrow (propidium iodide / anti-CD38, FACS); format: cell-based, human; conditions: 72 hours, marrow of two patients; FIGS. 9-10
normal bone marrow cells = experiment: Killing of normal bone marrow cells in patient bone marrow (propidium iodide / anti-CD38, FACS); format: cell-based, human; conditions: 72 hours, marrow of two patients; FIGS. 9-10
[7] = Plasma pharmacokinetics of etodolac enantiomers; format: in vivo; conditions: 1 gram dosage, human subject
adjuvant polyarthritis = conditions: reduction in paw volume, prostaglandin synthetase inhibitory activity; cited from earlier work
prostate cancer = conditions: TRAMP mouse; cited from earlier work
B-cell CLL cells = conditions: cited from earlier work
[8] = primary normal peripheral blood lymphocyte (PBL) cells
[9] = 200 mg dose, six elderly patients

T1 sequence (P23219 24-599): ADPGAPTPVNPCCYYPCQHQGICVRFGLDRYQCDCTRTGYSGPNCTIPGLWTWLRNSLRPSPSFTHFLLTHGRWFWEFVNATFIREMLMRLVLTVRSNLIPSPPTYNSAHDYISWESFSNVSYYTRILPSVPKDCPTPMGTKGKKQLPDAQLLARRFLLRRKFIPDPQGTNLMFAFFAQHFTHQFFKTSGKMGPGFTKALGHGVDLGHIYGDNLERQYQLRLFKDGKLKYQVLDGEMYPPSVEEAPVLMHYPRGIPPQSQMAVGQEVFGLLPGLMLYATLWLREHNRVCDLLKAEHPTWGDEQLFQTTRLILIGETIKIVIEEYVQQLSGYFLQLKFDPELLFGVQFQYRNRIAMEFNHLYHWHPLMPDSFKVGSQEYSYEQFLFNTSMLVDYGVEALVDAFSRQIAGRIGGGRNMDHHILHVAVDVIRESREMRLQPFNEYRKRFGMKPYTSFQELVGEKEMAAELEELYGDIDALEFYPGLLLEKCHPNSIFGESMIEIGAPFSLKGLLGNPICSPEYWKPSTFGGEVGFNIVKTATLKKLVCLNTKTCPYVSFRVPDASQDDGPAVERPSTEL
T2 sequence (P35354 18-604): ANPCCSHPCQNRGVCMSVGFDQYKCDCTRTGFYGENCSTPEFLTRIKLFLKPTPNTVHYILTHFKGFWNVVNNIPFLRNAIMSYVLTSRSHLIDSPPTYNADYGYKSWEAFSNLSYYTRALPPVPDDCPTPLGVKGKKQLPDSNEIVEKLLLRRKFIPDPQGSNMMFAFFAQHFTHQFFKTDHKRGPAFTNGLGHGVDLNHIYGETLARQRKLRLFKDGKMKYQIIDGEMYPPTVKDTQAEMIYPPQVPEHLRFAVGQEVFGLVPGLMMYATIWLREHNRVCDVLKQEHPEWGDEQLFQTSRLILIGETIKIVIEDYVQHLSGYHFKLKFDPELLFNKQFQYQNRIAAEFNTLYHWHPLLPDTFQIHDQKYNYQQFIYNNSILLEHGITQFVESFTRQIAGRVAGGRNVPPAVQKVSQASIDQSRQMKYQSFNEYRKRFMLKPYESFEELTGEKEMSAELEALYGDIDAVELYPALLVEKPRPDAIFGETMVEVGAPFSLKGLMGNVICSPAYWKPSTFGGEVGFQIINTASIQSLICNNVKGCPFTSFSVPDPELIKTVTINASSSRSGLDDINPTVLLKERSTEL

With `CCc1cccc2c3c([nH]c12)C(CC)(CC(=O)O)OCC3` (racemic) [etodolac, 1,8-Diethyl-1,3,4,9-tetrahydropyrano[3,4-b]indole-1-acetic acid] the “concentration at which significant death of normal PBLs occurred” value [1] was 800 µM, the “viability of normal B cells compared to control cultures” value (normal B cells) was “did not reduce the viability” and the “in vitro survival of CLL cells after treatment compared to before treatment” value (CLL cells [2]; patient one, FIG. 7) was “less dramatic but similar effect”. The “in vitro survival of CLL cells after treatment compared to before treatment” value (CLL cells [2]; patient two, FIG. 6) was “shortened survival”, the “cell death by apoptosis (DiOC6 staining, dots in left lower box) after versus before treatment” value (CLL cells [2]; patient two, detectable at 12 hours, increases after 24 hours, FIG. 8) was “much higher” and the IC50 (PC-3 (Prostate); 72 h) was 340 ± 20 µM. For the same compound, the IC50 (LNCaP-FGC (Prostate); 72 h) was 400 ± 35 µM, the IC50 (Alva-31 (Prostate); 72 h) was > 1000 µM and the IC50 (OVCAR-3 (Ovarian); Homo sapiens, 72 h) was > 1000 µM. For the same compound, the IC50 (MDA-MB-231 (Breast); Homo sapiens, 72 h) was > 1000 µM, the IC50 (HCT-116 (Colon); Homo sapiens, 72 h) was 450 ± 15 µM and the IC50 (SW260 (Colon)) was 1000 ± 120 µM. For the same compound, the IC50 (A549 (Lung); Homo sapiens, 72 h) was > 1000 µM, the Mcl-1 levels (Mcl-1; 100 μM, as early as two hours, LNCaP, FIG. 11A) was “fell” and the Bag-1 levels (Bag-1) was “fell”. The “Bcl-2 and Bax levels” value (Bcl-2 and Bax) was “did not alter”, the “activity in prostatectomy samples” value (prostate cancer tissue) was “active” and the “effect on normal basal cells in prostatectomy samples” value (prostate cancer tissue) was “did not affect normal basal cells”. For the same compound, the “toxicity to tumor cells in prostatectomy samples” value (prostate cancer tissue; FIG. 15) was “selectively toxic to the tumor cells”, the elimination half-life ([3]; in vivo) was 6 to 8 h and the CLL cells killed (CLL cells [4]; 200 μM, 48 hour exposure, FIG. 2) was 50%. The “cytotoxic effect on CLL cells, either drug alone” value (CLL cells [4]; fludarabine 10 nM or etodolac 10 μM alone, 48 hours, FIG. 3) was “ineffective”.

`CCc1cccc2c3c([nH]c12)C(CC)(CCO)OCC3` (stereo not drawn) [Compound 1, 2-(1,8-Diethyl-1,3,4,9-tetrahydropyrano[3,4-b]indol-1-yl)-ethanol] gave an EC50 (CLL cells [5]) of 178 µM, an inhibition at 50 µM [6] of 0% and an inhibition at 50 µM (human recombinant COX-2) of 0%. The CC50 at 48 h (in vitro; [8]) was ~500 µM.

With `CCc1cccc2c3c([nH]c12)C(CC)(CC(N)=O)OCC3` (stereo not drawn) [Compound 6, 2-(1,8-Diethyl-1,3,4,9-tetrahydropyrano[3,4-b]indol-1-yl)-acetamide] the EC50 (CLL cells [5]) was 258 µM, the inhibition at 50 µM [6] was 36% and the inhibition at 50 µM (human recombinant COX-2) was 69%. For the same compound, the CC50 at 48 h (in vitro; [8]) was > 500 µM.

In the case of `CCc1cccc2c3c([nH]c12)[C@@](CC)(CC(=O)O)OCC3` [R-etodolac], the “killing of multiple myeloma cells” value (multiple myeloma cells) is reported as “dose-dependently killed”, the “killing of normal bone marrow cells” value (normal bone marrow cells) is reported as “did not kill” and the IC50 (PC-3 (Prostate); 72 h) is reported as 150 ± 15 µM. For the same compound, the IC50 (LNCaP-FGC (Prostate); 72 h) was 270 ± 50 µM, the IC50 (Alva-31 (Prostate); 72 h) was > 1000 µM and the IC50 (OVCAR-3 (Ovarian); Homo sapiens, 72 h) was > 1000 µM. The IC50 (MDA-MB-231 (Breast); Homo sapiens, 72 h) was > 1000 µM, the IC50 (HCT-116 (Colon); Homo sapiens, 72 h) was 280 ± 20 µM and the IC50 (A549 (Lung); Homo sapiens, 72 h) was > 1000 µM. For the same compound, the “Mcl-1 degradation by the enantiomers” value (Mcl-1) was “induced Mcl-1 degradation at equivalent concentrations”, the “activity in prostatectomy samples” value (prostate cancer tissue) was “active” and the EC50 (CLL cells [5]) was 247 µM. For the same compound, the “maximal plasma concentration that a dosage should yield” value [7] was “about 400 μM”, the anti-inflammatory activity (adjuvant polyarthritis) was “No anti-inflammatory activity was discernible” and the maximum plasma concentration [3, 9] was “about 33 μM”. For the same compound, the “plasma concentrations of the R-enantiomer relative to the S-enantiomer” value ([3]; after administration of RS-etodolac) was “about 10 fold higher”, the CC50 at 48 h (in vitro) was ~500 µM and the “toxicity of the enantiomers to CLL cells” value (CLL cells [4]) was “equivalently cytotoxic”.

For `C[C@@H](C(=O)O)c1ccc(-c2ccccc2)c(F)c1` [R-flurbiprofen], the “progression of prostate cancer” value (prostate cancer) is given as “inhibited progression of prostate cancer”.

With `CCc1cccc2c3c([nH]c12)[C@](CC)(CC(=O)O)OCC3` [S-etodolac] the IC50 (PC-3 (Prostate)) was 800 µM, the IC50 (LNCaP-FGC (Prostate)) was 220 ± 20 µM and the IC50 (Alva-31 (Prostate)) was > 1000 µM. The IC50 (OVCAR-3 (Ovarian)) was > 1000 µM, the IC50 (MDA-MB-231 (Breast)) was > 1000 µM and the IC50 (HCT-116 (Colon)) was 420 ± 50 µM. For the same compound, the IC50 (A549 (Lung)) was > 1000 µM, the “Mcl-1 degradation by the enantiomers” value (Mcl-1) was “induced Mcl-1 degradation at equivalent concentrations” and the “activity in prostatectomy samples” value (prostate cancer tissue) was “active”. For the same compound, the anti-inflammatory activity (adjuvant polyarthritis) was “almost all of the anti-inflammatory activity of the racemate”, the “maximum concentration relative to the R-enantiomer” value [3, 9] was 5 fold lower and the “toxicity of the enantiomers to CLL cells” value (CLL cells [4]) was “equivalently cytotoxic”.

For `CC(=O)Oc1ccccc1C(=O)O` [aspirin], the “viability of B-cell CLL cells in vitro” value (B-cell CLL cells) is listed as “reduced the viability”.

In the case of `O=C(O)c1ccccc1O` [salicylate], the “viability of B-cell CLL cells in vitro” value (B-cell CLL cells) is given as “reduced the viability”.
